Results taken from ChEMBL document CHEMBL2380255, “Dual targeting of adenosine A(2A) receptors and monoamine oxidase B by 4H-3,1-benzothiazin-4-ones” (J Med Chem, 2013).
Blank lines part the entries; values can stand above or below the compound they belong to.

Key:
[1] = target: T1, Amine oxidase [flavin-containing] B (Homo sapiens, UniProt P27338); test: Inhibition of recombinant human MAO-B expressed in baculovirus-infected insect cells using p-tyramine as substrate incubated for 30 mins prior to substrate addition measured for 45 mins by amplex red reagent-based microplate fluorescence reader analysis; format: cell-based
T1 sequence (P27338 whole entry): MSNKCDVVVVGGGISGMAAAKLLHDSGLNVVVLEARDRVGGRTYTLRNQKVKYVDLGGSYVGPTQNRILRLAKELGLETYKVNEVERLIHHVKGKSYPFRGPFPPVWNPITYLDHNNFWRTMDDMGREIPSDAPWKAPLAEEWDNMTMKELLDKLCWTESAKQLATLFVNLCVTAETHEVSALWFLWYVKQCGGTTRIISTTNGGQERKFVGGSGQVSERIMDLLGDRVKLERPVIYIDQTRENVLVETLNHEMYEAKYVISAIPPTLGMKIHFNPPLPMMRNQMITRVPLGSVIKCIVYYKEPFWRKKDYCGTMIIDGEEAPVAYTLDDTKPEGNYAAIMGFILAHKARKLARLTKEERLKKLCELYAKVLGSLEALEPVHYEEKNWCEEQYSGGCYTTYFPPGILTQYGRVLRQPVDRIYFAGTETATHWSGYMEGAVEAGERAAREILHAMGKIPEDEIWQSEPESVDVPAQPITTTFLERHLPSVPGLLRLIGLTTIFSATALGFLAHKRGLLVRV

[2] = Selectivity ratio of IC50 for MAO-B in mitochondria-enriched Sprague-Dawley rat liver fractions to IC50 for recombinant human MAO-B
[3] = target: T2, Amine oxidase [flavin-containing] B (Rattus norvegicus, UniProt P19643); test: Inhibition of MAO-B in mitochondria-enriched Sprague-Dawley rat liver fractions using p-tyramine as substrate incubated for 30 mins prior to substrate addition measured for 45 mins by amplex red reagent-based microplate fluorescence reader analysis
T2 sequence (P19643 whole entry): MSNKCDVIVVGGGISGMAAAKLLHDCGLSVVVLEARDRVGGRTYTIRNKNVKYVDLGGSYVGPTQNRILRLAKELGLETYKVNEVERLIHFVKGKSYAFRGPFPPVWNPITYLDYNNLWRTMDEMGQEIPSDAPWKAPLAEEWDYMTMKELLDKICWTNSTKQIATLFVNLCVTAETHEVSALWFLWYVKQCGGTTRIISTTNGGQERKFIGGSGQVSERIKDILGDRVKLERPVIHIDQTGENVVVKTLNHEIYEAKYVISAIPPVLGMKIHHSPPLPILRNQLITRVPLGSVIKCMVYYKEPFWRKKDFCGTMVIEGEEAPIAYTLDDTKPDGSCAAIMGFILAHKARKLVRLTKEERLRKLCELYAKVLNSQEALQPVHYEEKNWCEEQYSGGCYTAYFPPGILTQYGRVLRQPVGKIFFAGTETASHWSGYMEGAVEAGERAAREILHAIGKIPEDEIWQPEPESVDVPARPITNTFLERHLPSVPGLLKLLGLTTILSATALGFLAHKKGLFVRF

[4] = target: T3, Adenosine receptor A2b (Homo sapiens, UniProt P29275); test: Displacement of [3H]PSB-603 from human recombinant adenosine A2B receptor expressed in CHO cells after 75 mins by liquid scintillation counting analysis; format: cell-based
T3 sequence (P29275 whole entry): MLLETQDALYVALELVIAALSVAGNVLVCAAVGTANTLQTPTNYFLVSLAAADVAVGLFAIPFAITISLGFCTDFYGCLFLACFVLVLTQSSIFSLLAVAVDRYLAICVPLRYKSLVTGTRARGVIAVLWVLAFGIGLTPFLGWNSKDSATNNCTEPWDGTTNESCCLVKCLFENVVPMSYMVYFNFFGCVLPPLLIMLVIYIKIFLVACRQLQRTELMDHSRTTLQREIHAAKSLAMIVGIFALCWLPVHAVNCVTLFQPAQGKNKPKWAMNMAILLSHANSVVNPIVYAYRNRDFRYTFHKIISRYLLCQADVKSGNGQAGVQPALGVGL

[5] = target: Adenosine receptor A2a (Rattus norvegicus, UniProt P30543); test: Displacement of [3H]MSX2 from adenosine A2A receptor in rat brain striatal membranes after 30 mins by liquid scintillation counting analysis; format: cell membranes, Membrane
[6] = target: T4, Adenosine receptor A3 (Homo sapiens, UniProt P0DMS8); test: Displacement of [3H]PSB-11 from human recombinant adenosine A3 receptor expressed in CHO cells after 60 mins by liquid scintillation counting analysis; format: cell-based
T4 sequence (P0DMS8 whole entry): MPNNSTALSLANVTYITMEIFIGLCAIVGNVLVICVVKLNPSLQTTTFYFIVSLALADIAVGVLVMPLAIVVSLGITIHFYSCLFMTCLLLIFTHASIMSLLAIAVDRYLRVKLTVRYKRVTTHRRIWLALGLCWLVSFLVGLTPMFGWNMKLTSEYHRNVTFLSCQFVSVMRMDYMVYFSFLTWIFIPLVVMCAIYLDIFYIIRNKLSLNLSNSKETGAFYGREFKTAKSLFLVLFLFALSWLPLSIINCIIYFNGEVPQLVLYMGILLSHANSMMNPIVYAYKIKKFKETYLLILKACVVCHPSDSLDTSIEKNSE

[7] = target: T5, Adenosine receptor A1 (Rattus norvegicus, UniProt P25099); test: Displacement of [3H]CCPA from adenosine A1 receptor in rat brain cortical membranes after 90 mins by liquid scintillation counting analysis; format: cell membranes, Membrane
T5 sequence (P25099 whole entry): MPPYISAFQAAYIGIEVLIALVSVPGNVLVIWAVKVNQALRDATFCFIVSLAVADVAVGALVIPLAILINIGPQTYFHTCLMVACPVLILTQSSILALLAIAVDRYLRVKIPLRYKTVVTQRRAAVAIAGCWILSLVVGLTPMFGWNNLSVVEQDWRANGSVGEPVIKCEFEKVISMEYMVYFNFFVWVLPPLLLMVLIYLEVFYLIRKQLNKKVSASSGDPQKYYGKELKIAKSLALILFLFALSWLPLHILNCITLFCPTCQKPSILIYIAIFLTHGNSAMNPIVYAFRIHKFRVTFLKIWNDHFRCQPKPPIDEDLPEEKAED

[8] = target: T6, Adenosine receptor A1 (Homo sapiens, UniProt P30542); test: Displacement of [3H]CCPA from human recombinant adenosine A1 receptor expressed in CHO cells after 90 mins by liquid scintillation counting analysis; format: cell-based
T6 sequence (P30542 whole entry): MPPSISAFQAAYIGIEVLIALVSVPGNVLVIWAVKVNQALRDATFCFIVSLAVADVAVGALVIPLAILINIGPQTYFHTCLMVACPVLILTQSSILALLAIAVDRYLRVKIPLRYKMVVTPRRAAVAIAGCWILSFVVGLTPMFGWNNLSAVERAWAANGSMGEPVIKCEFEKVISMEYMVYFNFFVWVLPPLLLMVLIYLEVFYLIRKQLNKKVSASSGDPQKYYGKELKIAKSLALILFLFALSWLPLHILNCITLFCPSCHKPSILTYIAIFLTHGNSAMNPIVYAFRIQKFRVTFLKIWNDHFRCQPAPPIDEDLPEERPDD

[9] = target: Adenosine receptor A2a (Homo sapiens, UniProt P29274); test: Displacement of [3H]MSX2 from human recombinant adenosine A2A receptor expressed in CHO cells after 30 mins by liquid scintillation counting analysis; format: cell-based
Chain of Adenosine receptor A2a (Homo sapiens, UniProt P29274) (P29274 whole entry): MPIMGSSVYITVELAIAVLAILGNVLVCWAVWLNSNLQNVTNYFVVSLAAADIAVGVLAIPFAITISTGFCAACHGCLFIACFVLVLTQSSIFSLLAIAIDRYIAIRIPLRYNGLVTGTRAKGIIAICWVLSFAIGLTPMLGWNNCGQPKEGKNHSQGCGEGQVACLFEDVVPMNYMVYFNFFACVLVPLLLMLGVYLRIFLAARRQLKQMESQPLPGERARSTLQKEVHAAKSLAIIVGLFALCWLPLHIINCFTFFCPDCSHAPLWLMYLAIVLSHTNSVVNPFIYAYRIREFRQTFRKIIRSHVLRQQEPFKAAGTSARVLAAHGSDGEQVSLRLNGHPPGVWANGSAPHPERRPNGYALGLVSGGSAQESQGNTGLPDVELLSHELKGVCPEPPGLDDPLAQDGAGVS

Chain of Adenosine receptor A2a (Rattus norvegicus, UniProt P30543) (P30543 whole entry): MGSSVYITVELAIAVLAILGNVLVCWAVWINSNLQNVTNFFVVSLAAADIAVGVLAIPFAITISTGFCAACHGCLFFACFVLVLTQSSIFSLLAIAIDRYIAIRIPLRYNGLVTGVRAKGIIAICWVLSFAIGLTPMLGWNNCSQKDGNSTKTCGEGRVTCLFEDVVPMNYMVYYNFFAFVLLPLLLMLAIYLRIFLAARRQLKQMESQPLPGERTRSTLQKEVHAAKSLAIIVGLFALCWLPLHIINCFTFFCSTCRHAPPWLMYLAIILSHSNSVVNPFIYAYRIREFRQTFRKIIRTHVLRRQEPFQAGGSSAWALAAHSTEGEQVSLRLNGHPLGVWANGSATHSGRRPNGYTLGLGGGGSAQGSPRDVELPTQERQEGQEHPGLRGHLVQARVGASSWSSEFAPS

SMILES: O=C(CCCc1ccccc1)Nc1nc2ccc(Cl)cc2c(=O)s1
IC50 [1]: > 10 µM
IC50 [3]: > 10 µM
Ki [4]: > 1 µM
Ki [5]: > 10 µM
Ki [6]: > 1 µM
Ki [7]: > 10 µM
Ratio IC50 [2]: 1.4

SMILES: O=C(CCCc1ccccc1)Nc1nc2cc(Cl)ccc2c(=O)s1
IC50 [1]: 0.0764 µM
IC50 [3]: 1.22 µM
Ki [4]: > 1 µM
Ki [8]: 0.785 µM
Ki [5]: ≥ 10 µM
Ki [6]: 0.0916 µM
Ki [7]: 0.0644 µM
Ratio IC50 [2]: 1.4

SMILES: O=C(C/C=C/c1ccc(Cl)c(Cl)c1)Nc1nc2ccccc2c(=O)s1
IC50 [1]: > 10 µM
IC50 [3]: 4.64 µM
Ki [4]: > 1 µM
Ki [5]: > 1 µM
Ki [6]: > 1 µM
Ki [7]: ≥ 1.5 µM

SMILES: COc1cccc(C#CC(=O)Nc2nc3ccccc3c(=O)s2)c1
IC50 [1]: 0.0437 µM
IC50 [3]: 0.0739 µM
Ki [4]: > 1 µM
Ki [9]: ≥ 1 µM
Ki [5]: 1.72 µM
Ki [6]: > 1 µM
Ki [7]: > 10 µM
Ratio IC50 [2]: 1.4

SMILES: Cc1sc2nc(NC(=O)CCCc3ccccc3)sc(=O)c2c1C
IC50 [1]: 0.0098 µM
IC50 [3]: 0.0266 µM
Ki [4]: > 1 µM
Ki [5]: > 10 µM
Ki [6]: > 1 µM
Ki [7]: > 10 µM
Ratio IC50 [2]: 1.4

SMILES: O=C(CCCc1ccccc1)Nc1nc2ccsc2c(=O)s1
IC50 [1]: 0.206 µM
IC50 [3]: 0.298 µM
Ki [4]: 0.547 µM
Ki [5]: > 10 µM
Ki [6]: > 1 µM
Ki [7]: ≥ 10 µM
Ratio IC50 [2]: 1.4

SMILES: O=C(CCCc1ccc(Cl)c(Cl)c1)Nc1nc2ccccc2c(=O)s1
IC50 [1]: 3.44 µM
IC50 [3]: 3.3 µM
Ki [4]: > 1 µM
Ki [5]: > 10 µM
Ki [6]: > 1 µM
Ki [7]: > 1.5 µM

SMILES: O=C(/C=C/c1cccc(Cl)c1)Nc1nc2ccccc2c(=O)s1
IC50 [1]: 0.0933 µM
IC50 [3]: 0.815 µM
Ki [4]: > 1 µM
Ki [9]: > 1 µM
Ki [5]: > 10 µM
Ki [6]: > 1 µM
Ki [7]: ≥ 10 µM
Ratio IC50 [2]: 1.4

Next, values leading:

IC50 [1]: > 10 µM
Ratio IC50 [2]: 1.4
SMILES: O=C(Nc1nc2ccccc2c(=O)s1)c1ccc(C(=O)N2CCN(Cc3ccccc3)CC2)cc1

IC50 [1]: > 10 µM
IC50 [3]: > 10 µM
Ki [4]: > 1 µM
Ki [5]: > 10 µM
Ki [6]: > 1 µM
Ki [7]: > 10 µM
Ratio IC50 [2]: 1.4
SMILES: O=C(CCCc1ccccc1)Nc1nc2ccc(Br)cc2c(=O)s1

IC50 [1]: > 10 µM
IC50 [3]: > 10 µM
Ki [4]: > 1 µM
Ki [5]: > 10 µM
Ki [6]: > 1 µM
Ki [7]: > 1.5 µM
Ratio IC50 [2]: 1.4
SMILES: O=C(CCc1ccc(Cl)c(Cl)c1)Nc1nc2ccccc2c(=O)s1

IC50 [1]: > 10 µM
Ki [4]: > 1 µM
Ki [8]: > 1 µM
Ki [9]: 0.0583 µM
Ki [5]: 0.0847 µM
Ki [6]: > 1 µM
Ratio IC50 [2]: 1.4
SMILES: O=C(Nc1nc2ccccc2c(=O)s1)c1ccc(C(=O)N2CCN(Cc3cccc(Cl)c3)CC2)cc1

IC50 [1]: 0.094 µM
IC50 [3]: 0.325 µM
Ki [4]: 0.408 µM
Ki [8]: 1 µM
Ki [5]: 6.06 µM
Ki [6]: 0.147 µM
Ki [7]: 0.0983 µM
Ratio IC50 [2]: 1.4
SMILES: Cc1ccc2nc(NC(=O)CCCc3ccccc3)sc(=O)c2c1

IC50 [1]: > 1 µM
IC50 [3]: 6.88 µM
Ki [4]: ≥ 1 µM
Ki [8]: > 10 µM
Ki [5]: > 10 µM
Ki [6]: > 1 µM
Ki [7]: 0.898 µM
Ratio IC50 [2]: 1.4
SMILES: O=C(CCCc1cccc(Cl)c1)Nc1nc2ccccc2c(=O)s1

IC50 [1]: 0.0531 µM
Ki [4]: > 1 µM
Ki [9]: > 10 µM
Ki [5]: > 10 µM
Ki [6]: > 1 µM
Ki [7]: > 10 µM
Ratio IC50 [2]: 1.4
SMILES: CN(C(=O)CCCc1ccccc1)c1nc2ccccc2c(=O)s1

IC50 [1]: 0.0112 µM
IC50 [3]: 0.725 µM
Ki [4]: 0.801 µM
Ki [5]: 2.19 µM
Ki [6]: ≥ 1 µM
Ki [7]: > 10 µM
Ratio IC50 [2]: 65
SMILES: O=C(CCc1ccccc1F)Nc1nc2ccccc2c(=O)s1

IC50 [1]: 0.00209 µM
IC50 [3]: 0.064 µM
Ki [4]: > 1 µM
Ki [5]: > 10 µM
Ki [6]: > 1 µM
Ki [7]: > 10 µM
Ratio IC50 [2]: 31
SMILES: O=C(CCc1ccccc1Br)Nc1nc2ccccc2c(=O)s1

IC50 [3]: > 10 µM
Ratio IC50 [2]: 1.4
SMILES: O=C(Nc1nc2ccccc2c(=O)s1)c1ccccc1
